From the supplement of paper PMC10307832

What was measured:
Assay in all cases: relative viability (nuclei count vs DMSO), 5 days (fraction); higher = more cells survive
Omipalisib + Lapatinib = compound: COc1ncc(-c2ccc3nccc(-c4ccnnc4)c3c2)cc1NS(=O)(=O)c1ccc(F)cc1F [Omipalisib] + CS(=O)(=O)CCNCc1ccc(-c2ccc3ncnc(Nc4ccc(OCc5cccc(F)c5)c(Cl)c4)c3c2)o1 [Lapatinib] (partner 2 µM)
In short: (§1)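 Relative viability divides the nuclei count in treated wells by that in vehicle wells. Lung cancer cell lines were seeded in 1536-well plates, dosed by pin tool the next day, and fixed and stained after 5 days in one step with final 0.05% Triton X-100, 1% formaldehyde and 1 ug/ml Hoechst. Dosing was a single drug or a fixed anchor-drug dose plus five library-drug doses (not always all listed) in √10 steps, and values are medians of duplicate plates imaged at 4×.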

Omipalisib + Foretinib = compound: COc1ncc(-c2ccc3nccc(-c4ccnnc4)c3c2)cc1NS(=O)(=O)c1ccc(F)cc1F [Omipalisib] + COc1cc2c(Oc3ccc(NC(=O)C4(C(=O)Nc5ccc(F)cc5)CC4)cc3F)ccnc2cc1OCCCN1CCOCC1 [Foretinib] (partner 0.25 µM)
In short: as §1

Omipalisib + Bortezomib = compound: COc1ncc(-c2ccc3nccc(-c4ccnnc4)c3c2)cc1NS(=O)(=O)c1ccc(F)cc1F [Omipalisib] + CC(C)C[C@H](NC(=O)[C@H](Cc1ccccc1)NC(=O)c1cnccn1)B(O)O [Bortezomib] (partner 0.002 µM)
In short: as §1

Omipalisib + Alpelisib = compound: COc1ncc(-c2ccc3nccc(-c4ccnnc4)c3c2)cc1NS(=O)(=O)c1ccc(F)cc1F [Omipalisib] + Cc1nc(NC(=O)N2CCC[C@H]2C(N)=O)sc1-c1ccnc(C(C)(C)C(F)(F)F)c1 [Alpelisib] (partner 2 µM)
In short: as §1

Omipalisib + Trametinib = compound: COc1ncc(-c2ccc3nccc(-c4ccnnc4)c3c2)cc1NS(=O)(=O)c1ccc(F)cc1F [Omipalisib] + CC(=O)Nc1cccc(-n2c(=O)n(C3CC3)c(=O)c3c(Nc4ccc(I)cc4F)n(C)c(=O)c(C)c32)c1 [Trametinib] (partner 0.02 µM)
In short: as §1

Omipalisib + OSI-027 = compound: COc1ncc(-c2ccc3nccc(-c4ccnnc4)c3c2)cc1NS(=O)(=O)c1ccc(F)cc1F [Omipalisib] + COc1cccc2cc(-c3nc([C@H]4CC[C@H](C(=O)O)CC4)n4ncnc(N)c34)[nH]c12 [OSI-027] (partner 0.5 µM)
In short: as §1

Cell Line	relative viability (Omipalisib + Lapatinib; first compound 0.0003 µM)	relative viability (Omipalisib + Lapatinib; first compound 0.003 µM)	relative viability (Omipalisib + Lapatinib; first compound 0.03 µM)	relative viability (Omipalisib + Foretinib; first compound 0.0003 µM)	relative viability (Omipalisib + Foretinib; first compound 0.003 µM)	relative viability (Omipalisib + Foretinib; first compound 0.03 µM)	relative viability (Omipalisib + Bortezomib; first compound 0.0003 µM)	relative viability (Omipalisib + Bortezomib; first compound 0.003 µM)	relative viability (Omipalisib + Bortezomib; first compound 0.03 µM)	relative viability (Omipalisib + Alpelisib; first compound 0.0003 µM)	relative viability (Omipalisib + Alpelisib; first compound 0.003 µM)	relative viability (Omipalisib + Alpelisib; first compound 0.03 µM)	relative viability (Omipalisib + Trametinib; first compound 0.0003 µM)	relative viability (Omipalisib + Trametinib; first compound 0.003 µM)	relative viability (Omipalisib + Trametinib; first compound 0.03 µM)	relative viability (Omipalisib + OSI-027; first compound 0.0003 µM)	relative viability (Omipalisib + OSI-027; first compound 0.003 µM)	relative viability (Omipalisib + OSI-027; first compound 0.03 µM)
NCI-H1755	1.04	0.924	0.783	0.911	0.821	0.51	0.924	0.886	0.708	0.949	0.878	0.514	0.736	0.695	0.356	0.707	0.501	0.448
LOU-NH91	0.708	0.53	0.511	0.901	0.838	0.564	0.543	0.517	0.453	0.681	0.677	0.53	0.788	0.666	0.593	0.705	0.58	0.503
NCI-H1993	0.812	0.809	0.588	0.805	0.633	0.594	0.894	0.699	0.542	0.652	0.649	0.672	0.423	0.584	0.509	0.48	0.597	0.621
HCC-15	0.81	0.779	0.795	0.944	0.814	0.721	0.988	0.848	0.813	0.922	0.73	0.789	0.32	0.207	0.165	0.628	0.357	0.413
HCC-827	0.192	0.158	0.187	1.03	0.803	0.288	1.06	1.17	0.828	1.06	0.943	0.389	0.472	0.37	0.202	0.769	0.531	0.254
HCC-366	0.898	0.496	0.186	0.849	0.772	0.189	0.918	0.707	0.168	0.352	0.182	0.103	0.245	0.152	0.0615	1.18	0.35	0.203
UMC-11	0.836	0.531	0.738	1.04	0.803	0.795	0.678	0.556	0.643	0.965	0.829	0.822	0.612	0.359	0.36	0.376	0.349	0.48
NCI-H727	0.723	0.776	0.674	0.937	0.609	0.421	0.841	0.591	0.511	0.594	0.445	0.5	0.381	0.337	0.264	0.596	0.439	0.393
NCI-H2009	0.997	0.943	0.581	1.15	1.07	0.922	0.979	0.986	0.584	1.16	1.12	0.994	0.278	0.16	0.184	0.673	0.444	0.312
NCI-H2405	0.949	0.6	0.303	1.01	0.756	0.39	0.895	0.909	0.578	0.79	0.633	0.359	0.486	0.37	0.271	0.661	0.359	0.296
NCI-H23	0.911	0.862	0.501	0.851	0.681	0.461	0.877	0.684	0.306	0.596	0.444	0.381	0.353	0.244	0.152	0.62	0.365	0.321
NCI-H2347	0.855	0.902	0.81	0.905	0.699	0.454	1.02	1.06	0.663	1.05	1.05	0.69	0.245	0.252	0.215	0.345	0.262	0.959
PC-3 [JPC-3]	0.457	0.367	0.318	1.03	1.03	0.856	0.788	0.888	0.909	1	0.993	0.863	0.738	0.664	0.439	0.735	0.569	0.551
NCI-H1355	0.942	0.665	0.54	0.764	0.643	0.416	1.16	0.925	0.375	0.716	0.55	0.336	0.361	0.263	0.194	0.377	0.238	0.237
NCI-H3122	1.03	1.05	0.786	0.942	0.802	0.522	1.01	1.04	0.818	0.742	0.63	0.489	0.185	0.137	0.119	0.863	0.376	0.216
COR-L 105	0.37	0.334	0.313	1.17	1.01	0.896	0.89	0.656	0.411	0.944	0.837	0.601	0.469	0.423	0.414	0.767	0.549	0.328
